One experiment has as its target Stromelysin-1 (Homo sapiens, UniProt P08254). As to the kind of experiment: Inhibition of Stromelysin (Matrix metalloprotease-3).
Experiment [1] addresses 72 kDa type IV collagenase (Homo sapiens, UniProt P08253). In words: Inhibition of gelatinase A (Matrix metalloprotease-2).
Another experiment has as its target Collagenase 3 (Homo sapiens, UniProt P45452). In words: Inhibition of Collagenase 3 (Matrix metalloprotease-13).

72 kDa type IV collagenase, sequence (P08253 whole entry): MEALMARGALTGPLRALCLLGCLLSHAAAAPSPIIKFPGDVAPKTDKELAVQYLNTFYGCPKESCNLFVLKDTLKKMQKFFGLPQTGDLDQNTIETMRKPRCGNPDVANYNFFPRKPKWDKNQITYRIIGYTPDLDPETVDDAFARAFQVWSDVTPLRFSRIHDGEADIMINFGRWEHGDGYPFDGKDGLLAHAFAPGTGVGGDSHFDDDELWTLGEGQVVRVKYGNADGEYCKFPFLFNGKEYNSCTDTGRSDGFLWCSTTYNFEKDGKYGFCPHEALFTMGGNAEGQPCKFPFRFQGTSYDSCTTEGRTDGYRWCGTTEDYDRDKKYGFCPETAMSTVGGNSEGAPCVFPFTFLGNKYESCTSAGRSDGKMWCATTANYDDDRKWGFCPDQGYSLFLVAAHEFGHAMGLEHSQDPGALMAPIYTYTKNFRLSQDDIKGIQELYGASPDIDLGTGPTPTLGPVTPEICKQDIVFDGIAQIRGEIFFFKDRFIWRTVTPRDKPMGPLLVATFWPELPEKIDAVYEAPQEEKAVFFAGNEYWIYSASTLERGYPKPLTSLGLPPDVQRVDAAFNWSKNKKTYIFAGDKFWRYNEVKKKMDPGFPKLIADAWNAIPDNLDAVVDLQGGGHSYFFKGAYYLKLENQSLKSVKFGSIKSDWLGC
Stromelysin-1, sequence (P08254 whole entry): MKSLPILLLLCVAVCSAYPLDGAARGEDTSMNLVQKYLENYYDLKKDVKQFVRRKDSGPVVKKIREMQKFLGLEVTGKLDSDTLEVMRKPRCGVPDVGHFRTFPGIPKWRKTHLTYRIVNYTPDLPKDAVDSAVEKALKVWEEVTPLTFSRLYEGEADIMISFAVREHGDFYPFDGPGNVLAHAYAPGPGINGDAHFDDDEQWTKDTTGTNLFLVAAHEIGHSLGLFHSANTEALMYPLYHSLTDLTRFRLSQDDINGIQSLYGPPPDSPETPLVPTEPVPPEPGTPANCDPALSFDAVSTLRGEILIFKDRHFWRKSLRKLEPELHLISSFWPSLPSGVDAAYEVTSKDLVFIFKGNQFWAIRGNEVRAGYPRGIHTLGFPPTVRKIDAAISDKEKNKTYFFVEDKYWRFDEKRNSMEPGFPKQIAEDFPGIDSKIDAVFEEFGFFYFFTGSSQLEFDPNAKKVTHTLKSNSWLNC

A word on the IC50: it is the concentration at which inhibition is half-maximal. Low readings indicate greater potency, high ones weaker potency. With `COc1ccc(-c2ccc(S(=O)(=O)N[C@@H](C(=O)O)C3CCC(O)CC3)cc2)cc1` (some centres not stated), the IC50 on Stromelysin-1 worked out at 1220 nM; in experiment [1], 12 nM; against Collagenase 3 it was 30 nM.

On to `COc1ccc(-c2ccc(S(=O)(=O)N[C@@H](C(=O)O)C3C=C[C@@H](O)CC3)cc2)cc1` (some centres not stated), for which the values for the IC50 (against Stromelysin-1; in experiment [1]; at Collagenase 3) were 2490 nM, 20 nM and 176 nM, respectively.

On to `COc1ccc(-c2ccc(S(=O)(=O)N[C@@H](C(=O)O)C3CC[C@H](O)C=C3Br)cc2)cc1` (some centres not stated), for which the results for the concentration for half-maximal inhibition (IC50) (against Stromelysin-1; in experiment [1]; on Collagenase 3) were 3800 nM, 38 nM and 131 nM, respectively.

In the case of `COc1ccc(-c2ccc(S(=O)(=O)N[C@@](C)(C(=O)O)C3CCC(O)CC3)cc2)cc1` (some centres not stated), the IC50 was determined as 6150 nM on Stromelysin-1, 251 nM in experiment [1] and 338 nM on Collagenase 3.

The record behind these values is ChEMBL document CHEMBL1134431, “Chemoenzymatic synthesis of functionalized cyclohexylglycines and alpha-methylcyclohexylglycines via Kazmaier-Claisen rearrangement” (Bioorg Med Chem Lett, 2001).
